Format in all cases: cell-based
The subject of experiment [1] is NCI-60 panel of cancer cell lines. As to the kind of experiment: NCI-60 panel, SRB colorimetric assay. The conditions noted are these: 10 μM single dose and five dose data (Supplemental Figs. S1–S8). How it is done: Supplementa ry Figure l egend
Supplementary Figures S 1- S4.CTR -21 effectivel y prev ent proliferation o f a rep resent ative set […]
of cancer cell lines (NC I-60 panel). Fi gu re S 1: 10 μM of CTR -21 was used against the panel of […]
NC I-60 cancer cell lines including: six leukemia cell lines, nine non-small cell lung cancer cell […]
lines, seven colorectal cancer cell lines, six CNS cancer cell lines, nine mel anoma cell lines, seven ovari an can cer cell lines, seven ren al can cer cell lines, two prostate cancer cell lines and six breast cancer cell lines, utilizing the sulforhodamine B (SRB) colorimetric assa y. Fi gu re S 2- […]
S4: Five dose data for CTR-21.
Supplementary Figures S 5- S8.CTR -32effectivel y prev ent s prolifer ation of a rep resent ative set […]
of cancer cell lines (NC I-60 panel). Fi gu re S 5: 10 μM of CTR -32 was used against the panel of […]
six breast cancer cell lines, utilizing the sulforhodamine B (SRB) colorimetric assa y. Fi gu re S 6- […]
S8: Five dose data for CTR-32.
Supplementa ry Figure S9.CTR -21 and CTR-32 inhibit microtubule pol ymerization in vitro .
Spontaneous pol ymerizat ion of 20µM porcine tubulin was initiated with the addition of 1 […]
mmol/L GTP at 37°C and monitored ever y minut e for 60 minutes in the presence of the […]
indicated concentration of CTR-21, CTR-32, nocodazole, paclitaxel, or a DMSO vehicle […]
(In general: In SRB staining, fixed cells bind dye roughly in proportion to their protein.)

Experiment [2] deals with RPMI-8226. Put plainly: Sulforhodamine B (SRB) assay. The conditions noted are these: Homo sapiens, Supplementary Table S1, SRB. The essentials:
(§1)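 Cells seeded at 10,000–25,000 cells/cm^2 (line-dependent) and left to adhere overnight, then exposed to eight compound concentrations (2–4-fold serial dilutions) for 48 h. Fixation with cold TCA, staining with 0.4% SRB; relative growth = 100*(T − T0)/(C − T0), GI50 from sigmoidal variable-slope fit.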

Experiment [3] concerns MDA-MB435. As to the kind of experiment: Sulforhodamine B (SRB) assay. To be noted: Homo sapiens, MDA-MB-435, MDA-MB435 cells, 48 h. The essentials:
as §1

The test system of experiment [4] is MZ-Mel-3. Put plainly: Sulforhodamine B (SRB) assay. To be noted: MZ-Mel-3 melanoma cells, 48 h. The essentials:
as §1

The subject of experiment [5] is Mel-SOE. As to the kind of experiment: Sulforhodamine B (SRB) assay. The conditions noted are these: Mel-SOE melanoma cells, 48 h. The essentials:
as §1

The test system of experiment [6] is UKRV-Mel-38. As to the kind of experiment: Sulforhodamine B (SRB) assay. To be noted: UKRV-Mel-38 melanoma cells, 48 h. In short, it runs like this: as §1
For experiment [7], the system named is MDA-MB468. As to the kind of experiment: Sulforhodamine B (SRB) assay. To be noted: Homo sapiens, MDA-MB-468, MDA-MB468 breast cancer cells, 48 h. In short, it runs like this: as §1

As usually defined, the IC50 is the point on the concentration scale where inhibition reaches its midpoint. Lower therefore signals greater potency in that assay. The term GI50 denotes the concentration giving 50% growth inhibition.

As to `COc1ccccc1C(=O)/C=C/c1cc2cccc(OC)c2[nH]c1=O` [CTR-21, (E)-8-methoxy-3-(3-(2-methoxyphenyl)-3-oxoprop-1-enyl) quinolin-2(1H)-one], the “activity against NCI-60 panel” value in experiment [1] is given as “highly effective”. In addition, it took 5.34 ± 0.89 nM to reach half-maximal inhibition in experiment [2] (IC50). The GI50 was found to be 7 ± 2 nM in experiment [3]; 6 ± 1 nM in experiment [4]; 27 ± 5 nM in experiment [5]; 13 ± 3 nM in experiment [6]; 29 ± 10 nM in experiment [7].
Turning to `CCOc1ccccc1C(=O)/C=C/c1cc2ccccc2[nH]c1=O` [CTR-32, (E)-3-(3-(2-ethoxyphenyl)-3-oxoprop-1-enyl)quinolin-2(1H)-one], the “activity against NCI-60 panel” value in experiment [1] is “highly effective”. In addition, the IC50 in experiment [2] is 6.29 ± 1.43 nM. Also, the 50% growth inhibitory concentration (GI50) was 13 ± 5 nM in experiment [3]; 6 ± 2 nM in experiment [4]; 33 ± 9 nM in experiment [5]; 22 ± 3 nM in experiment [6]; 26 nM in experiment [7].

The values above are taken from PMC8566451, “Lead optimization of novel quinolone chalcone compounds by a structure–activity relationship (SAR) study to increase efficacy and metabolic stability” (Scientific Reports, 2021).
